Assay results published in ChEMBL document CHEMBL3616448, “N-Hydroxyimides and hydroxypyrimidinones as inhibitors of the DNA repair complex ERCC1-XPF” (Bioorg Med Chem Lett, 2015).
Calls of active or inactive are those of the source. No cut-off for these calls is given here.

Key:
[1] = target: T1, DNA excision repair protein ERCC-1/DNA repair endonuclease XPF (Homo sapiens, UniProt P07992+Q92889); assay: Inhibition of ERCC1-XPF (unknown origin) by high-throughput fluorescence based in-vitro endonuclease assay; format: protein-complex assay
T1 sequence (P07992 whole entry): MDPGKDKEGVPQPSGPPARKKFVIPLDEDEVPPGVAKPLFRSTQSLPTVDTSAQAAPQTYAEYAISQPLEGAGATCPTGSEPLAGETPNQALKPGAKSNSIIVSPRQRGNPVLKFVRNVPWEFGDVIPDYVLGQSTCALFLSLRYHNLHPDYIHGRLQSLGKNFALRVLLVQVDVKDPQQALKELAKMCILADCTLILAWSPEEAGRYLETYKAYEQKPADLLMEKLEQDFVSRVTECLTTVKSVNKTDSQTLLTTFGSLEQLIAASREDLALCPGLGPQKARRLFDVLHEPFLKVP
T1 sequence (Q92889 whole entry): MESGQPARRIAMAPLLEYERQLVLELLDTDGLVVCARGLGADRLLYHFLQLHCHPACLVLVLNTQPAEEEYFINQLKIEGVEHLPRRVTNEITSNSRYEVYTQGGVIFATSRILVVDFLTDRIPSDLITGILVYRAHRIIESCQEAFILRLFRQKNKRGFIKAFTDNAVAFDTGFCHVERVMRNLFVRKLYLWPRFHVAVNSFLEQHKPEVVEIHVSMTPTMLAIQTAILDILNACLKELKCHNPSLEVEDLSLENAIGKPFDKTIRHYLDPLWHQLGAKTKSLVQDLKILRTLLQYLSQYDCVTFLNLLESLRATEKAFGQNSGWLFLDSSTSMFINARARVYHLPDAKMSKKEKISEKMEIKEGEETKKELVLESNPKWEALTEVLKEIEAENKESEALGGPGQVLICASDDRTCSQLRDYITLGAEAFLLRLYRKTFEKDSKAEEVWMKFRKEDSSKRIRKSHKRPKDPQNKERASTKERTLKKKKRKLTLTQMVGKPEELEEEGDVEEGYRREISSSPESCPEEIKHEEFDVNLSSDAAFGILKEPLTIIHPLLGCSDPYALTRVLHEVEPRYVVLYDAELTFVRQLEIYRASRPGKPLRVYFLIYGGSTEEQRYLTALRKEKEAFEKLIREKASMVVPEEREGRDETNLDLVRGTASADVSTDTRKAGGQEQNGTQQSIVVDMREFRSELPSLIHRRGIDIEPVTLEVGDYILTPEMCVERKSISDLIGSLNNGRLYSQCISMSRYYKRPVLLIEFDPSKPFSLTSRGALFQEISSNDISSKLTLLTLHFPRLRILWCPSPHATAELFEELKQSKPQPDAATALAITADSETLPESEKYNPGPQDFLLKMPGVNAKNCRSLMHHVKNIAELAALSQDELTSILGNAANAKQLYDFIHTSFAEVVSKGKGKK

[2] = target: Flap endonuclease 1 (Homo sapiens, UniProt P39748); assay: Inhibition of FEN1 (unknown origin)
[3] = target: T2, Deoxyribonuclease-1 (Homo sapiens, UniProt P24855); assay: Inhibition of DNAse1 (unknown origin)
T2 sequence (P24855 whole entry): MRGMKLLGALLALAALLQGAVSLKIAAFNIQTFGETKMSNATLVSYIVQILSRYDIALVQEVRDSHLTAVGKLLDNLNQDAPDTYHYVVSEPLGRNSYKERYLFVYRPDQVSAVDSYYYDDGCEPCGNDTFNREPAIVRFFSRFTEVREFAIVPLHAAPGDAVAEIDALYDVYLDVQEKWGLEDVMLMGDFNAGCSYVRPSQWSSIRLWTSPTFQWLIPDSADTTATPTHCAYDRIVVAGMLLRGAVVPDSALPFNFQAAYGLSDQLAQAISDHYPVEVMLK

[4] = system: HepG2; assay: Cytotoxicity against human HepG2 cells; format: cell-based
[5] = Half life in human liver microsomes; format: ADME
[6] = Half life in mouse liver microsomes; format: ADME
[7] = Apparent permeability by PAMPA method; format: physicochemical
[8] = Lipophilicity, log D of the compound; format: physicochemical; conditions: octanol/water
[9] = target: T3, DNA excision repair protein ERCC-1/DNA repair endonuclease XPF (Homo sapiens) (UniProt P07992+Q92889); assay: Inhibition of ERCC1-XPF in human A375 cells assessed as reduction in direct nucleotide excision repair of UV-damaged pEGFP plasmid up to 10 uM incubated for 24 hrs by recombinant GFP reporter assay; format: cell-based; conditions: A-375
[10] = system: A-375; assay: Cytotoxicity against human A375 cells assessed as reduction in cell number at 0.1 to 3 uM incubated for 5 days; format: cell-based; conditions: a-375, 120 h
[11] = target: T3, DNA excision repair protein ERCC-1/DNA repair endonuclease XPF (Homo sapiens); assay: Inhibition of ERCC1-XPF in human A375 cells assessed as induction of delay in DNA repair by measuring cumulative frequency of cells up to 10 uM pre-incubated for 1 hr before cisplatin exposure for 1 hr by immunohistochemistry based gammaH2AX foci assay; format: cell-based; conditions: A-375
[12] = target: T3, DNA excision repair protein ERCC-1/DNA repair endonuclease XPF (Homo sapiens); assay: Inhibition of ERCC1-XPF in human A375 cells assessed as potentiation of cisplatin-induced cytotoxicity at 0.1 to 3 uM incubated for 5 days; format: cell-based; conditions: A-375
[13] = target: T1, DNA excision repair protein ERCC-1/DNA repair endonuclease XPF; assay: Binding affinity to ERCC1-XPF (unknown origin) by SPR assay; format: protein-complex assay
[14] = target: T3, DNA excision repair protein ERCC-1/DNA repair endonuclease XPF (Homo sapiens); assay: Binding affinity to ERCC1-XPF (unknown origin) assessed as melting temperature by thermal shift assay; format: protein-complex assay

Flap endonuclease 1, sequence (P39748 whole entry): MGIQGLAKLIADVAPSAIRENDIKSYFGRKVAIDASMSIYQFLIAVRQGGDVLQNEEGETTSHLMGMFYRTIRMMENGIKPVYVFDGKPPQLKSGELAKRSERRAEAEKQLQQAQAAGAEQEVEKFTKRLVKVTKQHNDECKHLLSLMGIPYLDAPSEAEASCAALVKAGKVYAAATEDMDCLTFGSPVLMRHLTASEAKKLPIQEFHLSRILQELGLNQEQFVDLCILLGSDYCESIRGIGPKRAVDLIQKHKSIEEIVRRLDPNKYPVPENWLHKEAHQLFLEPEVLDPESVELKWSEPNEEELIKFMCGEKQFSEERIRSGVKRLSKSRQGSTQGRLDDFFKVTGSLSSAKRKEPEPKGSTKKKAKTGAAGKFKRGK

| SMILES | IC50 [1] [µM] | IC50 [2] [µM] | IC50 [3] [µM] | further results |
| --- | --- | --- | --- | --- |
| CC(C)CCNC(=O)c1nc(C2CCCCN2C)[nH]c(=O)c1O (configuration not stated) | 8.4 | > 100 | – | – |
| CC(C)CCNC(=O)c1nc(C2CCN(C)CC2)[nH]c(=O)c1O | 6.9 | > 100 | – | – |
| CC(=O)Nc1ccc2c(=O)n(O)c(=O)[nH]c2c1 | 6.4 | 2.1 | > 100 | – |
| CC(=O)Nc1ccc2[nH]c(=O)n(O)c(=O)c2c1 | 6.6 | 2 | 87 | – |
| CC(=O)Nc1cccc2c(=O)n(O)c(=O)[nH]c12 | 6.1 | 0.038 | > 100 | – |
| Cn1c(=O)n(O)c(=O)c2ccccc21 | 96.2 | 2.1 | > 100 | – |
| O=c1[nH]c2c(-c3ccccc3)csc2c(=O)n1O | 1.8 | 0.003 | > 100 | – |
| O=c1[nH]c2sccc2c(=O)n1O | 3.9 | 0.009 | > 100 | – |
| O=c1cc(-c2ccccc2)[nH]c(=O)n1O | 1.5 | 0.63 | > 100 | – |
| O=C1c2cccc3cccc(c23)C(=O)N1O | 30 | 0.3 | – | – |
| O=C1c2cccc3c(Cl)ccc(c23)C(=O)N1O | 12 | 0.7 | – | – |
| O=c1c2ccsc2n(Cc2ccccc2)c(=O)n1O | 80.4 | 0.68 | > 100 | – |
| O=c1[nH]c2ccccc2c(=O)n1O | 18.1 | 0.3 | > 100 | – |
| O=C(O)c1nc(-c2ccccc2)nc(O)c1O | 3.9 | 16.4 | > 100 | – |
| O=c1[nH]c2cc(N3CCCC3)ccc2c(=O)n1O | 9.1 | 1.1 | 27.9 | – |
| O=c1[nH]c2cc(Nc3ccccc3)ccc2c(=O)n1O | 3.9 | 0.23 | 30.2 | – |
| Cc1ccc(-c2coc3c(=O)n(O)c(=O)[nH]c23)cc1 | 1.5 | 0.057 | > 100 | – |

The next lines start with results.

| IC50 [1] [µM] | IC50 [2] [µM] | IC50 [3] [µM] | SMILES | further results |
| --- | --- | --- | --- | --- |
| 0.8 | 5 | 62.6 | CC(=O)NCCNC(=O)c1nc(-c2cccs2)[nH]c(=O)c1O | – |
| 27.3 | 10.1 | > 100 | COC(=O)c1nc(-c2cccs2)nc(O)c1O | – |
| 25.3 | > 100 | – | CC(C)CCNC(=O)c1nc(C2CCCN(C)C2)[nH]c(=O)c1O (configuration not stated) | – |
| > 100 | – | – | COc1nc(-c2cccs2)nc(C(=O)O)c1O | – |
| 16.4 | 53.4 | > 100 | COC(=O)c1nc(-c2ccccc2)[nH]c(=O)c1O | – |
| 2.9 | 10.4 | > 100 | O=C(O)c1nc(-c2cccs2)nc(O)c1O | – |
| 4.2 | 2.1 | > 100 | O=C(NCc1ccc(F)cc1)c1nc(-c2cccs2)nc(O)c1O | – |
| 1.7 | 71.3 | – | CC(C)CCNC(=O)c1nc(-c2ccc(CN(C)C)cc2)[nH]c(=O)c1O | – |
| 0.5 | 3.5 | – | CC(C)CCNC(=O)c1nc(-c2cccs2)[nH]c(=O)c1O | – |
| 0.7 | 8.6 | > 100 | O=C(Nc1cccnc1)c1nc(-c2cccs2)[nH]c(=O)c1O | – |
| 2.7 | 4.2 | > 100 | CCCNC(=O)c1nc(-c2cccs2)[nH]c(=O)c1O | – |
| 0.8 | 38.1 | – | CC(C)CCNC(=O)c1nc(-c2ccc(CN3CCOCC3)cc2)[nH]c(=O)c1O | – |
| 0.7 | 4 | > 100 | O=C(NCCO)c1nc(-c2cccs2)[nH]c(=O)c1O | – |
| 0.6 | 1.3 | > 100 | CCC(C)NC(=O)c1nc(-c2cccs2)[nH]c(=O)c1O (configuration not stated) | Activity [4]: > 10 µM; half-life [5]: > 6.67 h; half-life [6]: > 6.67 h; Papp [7]: 9.7 ×10⁻⁶ cm/s; logD [8]: 2.1 |
| 1 | 4.1 | 58.9 | O=C(NCCN1CCOCC1)c1nc(-c2cccs2)[nH]c(=O)c1O | – |
| 6.3 | > 100 | – | CC(C)CCNC(=O)c1nc(C2CCCCN2)[nH]c(=O)c1O (configuration not stated) | – |
| 48.8 | 88.9 | > 100 | Cn1c(-c2cccs2)nc(C(=O)O)c(O)c1=O | – |
| 0.8 | 10.5 | – | O=C(Nc1ccc(F)cc1)c1nc(-c2cccs2)[nH]c(=O)c1O | – |
| 4.6 | 13.7 | – | O=C(c1nc(-c2cccs2)[nH]c(=O)c1O)N1CCCC1 | – |
| 0.6 | 12 | 67.6 | CNC(=O)c1nc(-c2cccs2)[nH]c(=O)c1O | Activity [4]: > 10 µM; half-life [5]: 3.02 h; inhibition [9]: inactive; Activity [10]: Non-toxic; half-life [6]: > 6.67 h; inhibition [11]: inactive; Papp [7]: 3.1 ×10⁻⁶ cm/s; inhibition [12]: inactive; Kd [13]: 4 µM; ΔTm [14]: 4 °C; logD [8]: 0.5 |
| 1 | 23.3 | > 100 | NC(=O)c1nc(-c2cccs2)nc(O)c1O | Activity [4]: > 10 µM; half-life [5]: 2.32 h; half-life [6]: 2.5 h; Papp [7]: 0.7 ×10⁻⁶ cm/s; logD [8]: -0.4 |
